For the assay, the target named is T1, IRAK4 (Homo sapiens, UniProt Q9NWZ3).
T1 construct: endogenous in cells; host or cells: THP-1 cells
T1 sequence (Q9NWZ3 1-460): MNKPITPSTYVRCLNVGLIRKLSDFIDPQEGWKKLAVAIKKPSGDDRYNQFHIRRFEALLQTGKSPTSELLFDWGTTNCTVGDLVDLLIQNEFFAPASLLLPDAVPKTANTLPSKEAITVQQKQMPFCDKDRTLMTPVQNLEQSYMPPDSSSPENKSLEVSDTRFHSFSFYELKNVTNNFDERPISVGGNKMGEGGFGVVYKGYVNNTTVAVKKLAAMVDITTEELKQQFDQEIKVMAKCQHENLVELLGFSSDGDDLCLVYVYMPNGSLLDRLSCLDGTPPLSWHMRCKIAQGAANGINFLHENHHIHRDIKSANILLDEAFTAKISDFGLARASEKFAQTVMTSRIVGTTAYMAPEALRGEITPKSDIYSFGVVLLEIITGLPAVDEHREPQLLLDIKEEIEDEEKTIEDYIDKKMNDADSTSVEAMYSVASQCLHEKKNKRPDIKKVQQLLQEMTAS
The experiment in a line: LVL THP1 HTRF (THP1 Homogeneous Time Resolved Fluorescence). Type of assay: cell-based. The following applies: THP1 cells, 18 h incubation with compound; for DC50: read-out: LVL THP1 HTRF EC50. Put shortly:
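THP-1 cells in phenol red-free RPMI with 10% FBS were dosed with compound (20 nL in DMSO) for 18 h at 37° C. After 2 h lysis, IRAK4 was detected with anti-IRAK4-d2/anti-IRAK4-K HTRF antibodies for 18 h at room temperature and read at 665/615 nm; a parallel CTG plate was run.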

SMILES strings stand for the structures.

Regarding `C[C@H](C#N)Nc1cc(Nc2ncc(C#N)cc2F)ncc1-n1cc([C@H]2CC[C@H](CCN3CCN(c4ccc([C@@]5(C)CCC(=O)NC5=O)cc4)CC3)CC2)nn1` [P-299], the “LVL THP1 HTRF YMIN” value was found to be 3.5% and the DC50 was 36.4 nM.
For the molecule `C[C@H](C#N)Nc1cc(-n2ncc3cc(C#N)cnc32)ncc1-n1cc([C@H]2CC[C@](O)(CCN3CCN(c4ccc([C@@]5(C)CCC(=O)NC5=O)cn4)CC3)CC2)nn1` (single isomer, unassigned) [P-293], the “LVL THP1 HTRF YMIN” value amounted to 10.5% and the DC50 amounted to 65.8 nM.
Consider `C[C@H](C#N)Nc1cc(-n2ncc3cc(C#N)c(N)nc32)ncc1-n1cc([C@H]2CC[C@H](CCN3CCN(c4ccc([C@@]5(C)CCC(=O)NC5=O)nc4)CC3)CC2)nn1` (single isomer, unassigned) [P-307], for which the “LVL THP1 HTRF YMIN” value was found to be 86.3% and the DC50 was found to be 6.6 nM.
For `C[C@H](C#N)Nc1cc(-n2ncc3cc(C#N)cnc32)ncc1-n1cc([C@H]2CC[C@H](CCN3CCC(n4ccc(C5(F)CCC(=O)NC5=O)cc4=O)CC3)CC2)nn1` (stereo partly shown) [P-349] the same measures were 14.6% and 29.7 nM.
Take `C[C@H](C#N)Nc1cc(-n2ncc3cc(C#N)cnc32)ncc1-n1cc([C@H]2CC[C@H](CCN3CC[C@@H](Oc4ccc(N5CCC(=O)NC5=O)cc4)C3)CC2)nn1` [P-458]: the “LVL THP1 HTRF YMIN” value is given as 15.0% and the DC50 came to 128 nM.
For `C[C@H](C#N)Nc1cc(-n2ncc3cc(C#N)c(N)nc32)ncc1-n1cc([C@H]2CC[C@H](CCN3CCN(c4cnc([C@@]5(C)CCC(=O)NC5=O)cn4)CC3)CC2)nn1` (single isomer, unassigned) [P-268] the same measures were −0.2% and 2.1 nM.
Consider `C[C@H](C#N)Nc1cc(-c2ccc3cc(C#N)cnn23)ncc1-n1cc([C@H]2CC[C@H](CCN3CCN(c4ccc(C5CCC(=O)NC5=O)cc4)CC3)CC2)nn1` (stereo partly shown) [P-315], for which the “LVL THP1 HTRF YMIN” value is 1.4% and the DC50 turned out to be 2.2 nM.
The matching figures for `C[C@H](C#N)Nc1cc(-n2ncc3cc(C#N)cnc32)ncc1C(=O)N[C@H]1CC[C@H](CCN2CCC(F)(c3ccc([C@@]4(C)CCC(=O)NC4=O)cc3)CC2)CC1` [P-274]: 3.5% and 5.8 nM.
The matching figures for `C[C@H](C#N)Nc1cc(-n2ncc3cc(C#N)cnc32)ncc1-n1cc([C@H]2CC[C@H](CCN3CC[C@H]4[C@@H]3CCN4c3ccc([C@@]4(C)CCC(=O)NC4=O)cc3)CC2)nn1` (single isomer, unassigned) [P-454]: 1.1% and 13.6 nM.
For the molecule `C[C@H](C#N)Nc1cc(-n2ncc3cc(C#N)cnc32)ncc1-n1cc([C@H]2CC[C@H](CCN3CCC4(C3)CN(c3ccc(N5CCC(=O)NC5=O)cc3)C4)CC2)nn1` [P-439], the “LVL THP1 HTRF YMIN” value was determined as 11.2% and the DC50 was 92.4 nM.
As to `CS(=O)(=O)N1CCC(Nc2cc(-n3ncc4cc(C#N)c(N)nc43)ncc2-n2cc([C@H]3CC[C@H](CCN4CCN(c5ccc(C6CCC(=O)NC6=O)cc5)CC4)CC3)nn2)CC1` (stereo partly shown) [P-217], the DC50 was 9 nM.
For `C[C@H](C#N)Nc1cc(-n2ncc3cc(C#N)cnc32)ncc1-n1cc([C@H]2CC[C@H](CCN3C[C@@H]4CN(c5ccc([C@@]6(C)CCC(=O)NC6=O)cc5)C[C@@H]4C3)CC2)nn1` (single isomer, unassigned) [P-281], the “LVL THP1 HTRF YMIN” value worked out at 24.0% and the DC50 was found to be 106 nM.
On to `C[C@H](C#N)Nc1cc(-n2ncc3cc(C#N)c(N)nc32)ncc1-n1cc(C2CCC(CCN3CCN(c4ccc(C5CCC(=O)NC5=O)cc4)[C@H](C)C3)CC2)nn1` (stereo partly shown) [P-216], for which the “LVL THP1 HTRF YMIN” value is recorded as 1. % and the DC50 was found to be 1 nM.
Regarding `C[C@H](C#N)Nc1cc(-n2ncc3cc(C#N)c(N)nc32)ncc1C(=O)N[C@H]1CC[C@H](CCN2CCN(c3ccc(C4CCC(=O)NC4=O)c(F)c3)[C@H](C)C2)CC1` (stereo partly shown) [P-173], the “LVL THP1 HTRF YMIN” value was 0.7% and the DC50 was 11 nM.
In the case of `C[C@H](C#N)Nc1cc(-n2ncc3cc(C#N)cnc32)ncc1-n1cc([C@H]2CC[C@H](CCN3CCN(c4ccc(N5CCC(=O)NC5=O)cc4)C[C@@H]3C)CC2)nn1` [P-468], the “LVL THP1 HTRF YMIN” value is given as 2.3% and the DC50 was 17.2 nM.
The matching figures for `CC1CN(CC[C@H]2CC[C@H](c3cn(-c4cnc(-n5ncc6cc(C#N)cnc65)cc4N[C@H](C)C#N)nn3)CC2)CCC1c1ccc([C@@]2(F)CCC(=O)NC2=O)cc1` (single isomer, unassigned) [P-332]: 20.7% and 261 nM.
For `C[C@H](C#N)Nc1cc(-n2ncc3cc(C#N)cnc32)ncc1-n1cc([C@H]2CC[C@H](CCN3CC[C@@H]4[C@H]3CN4c3ccc(N4CCC(=O)NC4=O)cc3)CC2)nn1` (single isomer, unassigned) [P-495] the same measures were 2.7% and 110 nM.
For `C[C@H](C#N)Nc1cc(-n2ncc3cc(C#N)cnc32)ncc1C(=O)N[C@H]1CC[C@@H](CCN2CC[C@H]3[C@@H]2CCN3c2ccc(N3CCC(=O)NC3=O)c(Cl)c2)CC1` (single isomer, unassigned) [P-488] the same measures were 41.7% and 4440 nM.
As for `C[C@H](C#N)Nc1cc(-n2ncc3cc(C#N)c(N)nc32)ncc1-n1cc([C@H]2CC[C@H](CCN3CCN(c4cnc([C@@]5(C)CCC(=O)NC5=O)nc4)CC3)CC2)nn1` (single isomer, unassigned) [P-264], the “LVL THP1 HTRF YMIN” value is given as 94.6% and the DC50 worked out at 7.2 nM.
The matching figures for `CC1CN(CC[C@H]2CC[C@H](c3cn(-c4cnc(-n5ncc6cc(C#N)cnc65)cc4N[C@H](C)C#N)nn3)CC2)CCC1c1ccc([C@@]2(F)CCC(=O)NC2=O)cc1` (single isomer, unassigned) [P-331]: −2.2% and 1.8 nM.
Consider `C[C@H](C#N)Nc1cc(-n2ncc3cc(C#N)cnc32)ncc1-n1cc([C@H]2CC[C@](O)(CCN3CCN(c4ccc(N5CCC(=O)NC5=O)cc4)CC3)CC2)nn1` (single isomer, unassigned) [P-373], for which the “LVL THP1 HTRF YMIN” value was determined as 72.5% and the DC50 was 1000 nM.
For the molecule `C[C@H](C#N)Nc1cc(-n2ncc3cc(C#N)c(N)nc32)ncc1C(=O)N[C@H]1CC[C@H](CCN2CCN(c3ccc([C@@]4(C)CCC(=O)NC4=O)cc3)CC2)CC1` [P-250], the “LVL THP1 HTRF YMIN” value is listed as 2.4% and the DC50 stood at 1.2 nM.
The matching figures for `C[C@H](C#N)Nc1cc(-n2ncc3cc(C#N)c(N)nc32)ncc1-n1cc([C@H]2CC[C@H](CCN3CCN(c4ccc([C@@]5(C)CCC(=O)NC5=O)nn4)CC3)CC2)nn1` (single isomer, unassigned) [P-308]: 3.5% and 2.1 nM.
For `C[C@H](C#N)Nc1cc(-n2ncc3cc(C#N)cnc32)ncc1-n1cc([C@H]2CC[C@](O)(CCN3CCN(c4ccc([C@@]5(C)CCC(=O)NC5=O)cc4)CC3)CC2)nn1` (single isomer, unassigned) [P-292] the same measures were 7.2% and 32 nM.
The matching figures for `C[C@H](C#N)Nc1cc(-n2ncc3cc(C#N)c(N)nc32)ncc1-n1cc(C2CCC(CCN3CCN(c4ccc([C@@]5(C)CCC(=O)NC5=O)cc4)[C@@H](C)C3)CC2)nn1` (stereo partly shown) [P-245]: 2.6% and 12 nM.
In the case of `Cc1cc(N2CC[C@H]3[C@@H]2CCN3CC[C@H]2CC[C@H](c3cn(-c4cnc(-n5ncc6cc(C#N)cnc65)cc4N[C@H](C)C#N)nn3)CC2)ccc1N1CCC(=O)NC1=O` (single isomer, unassigned) [P-470], the “LVL THP1 HTRF YMIN” value is 10.6% and the DC50 worked out at 29.7 nM.
With `C[C@@H]1CN(CCC2CCC(c3cn(-c4cnc(-n5ncc6cc(C#N)cnc65)cc4NC4(C#N)CC4)nn3)CC2)[C@@H](C)CN1c1ccc([C@@]2(C)CCC(=O)NC2=O)cc1` (stereo partly shown) [P-240], the “LVL THP1 HTRF YMIN” value came out at 14.5% and the DC50 worked out at 297 nM.
The matching figures for `C[C@H](C#N)Nc1cc(-n2ncc3cc(C#N)c(N)nc32)ncc1-n1cc([C@H]2CC[C@H](CCN3CCN(c4ccc([C@@]5(C)CCC(=O)NC5=O)cn4)[C@H](C)C3)CC2)nn1` (single isomer, unassigned) [P-262]: 8.7% and 17.1 nM.
For `C[C@H](C#N)Nc1cc(-n2ncc3cc(C#N)cnc32)ncc1-n1cc([C@H]2CC[C@H](CCN3CC[C@@H](c4ccc([C@@]5(C)CCC(=O)NC5=O)cc4)C[C@@H]3C)CC2)nn1` (single isomer, unassigned) [P-283] the same measures were 5.2% and 5.7 nM.
Turning to `Cc1cc(N2CCN(CC[C@H]3CC[C@H](c4cn(-c5cnc(-n6ncc7cc(C#N)cnc76)cc5N[C@H](C)C#N)nn4)CC3)CC2)ccc1N1CCC(=O)NC1=O` [P-363], the “LVL THP1 HTRF YMIN” value is reported as 5.0% and the DC50 is 7.6 nM.
Consider `C[C@H](C#N)Nc1cc(-n2ncc3cc(C#N)cnc32)ncc1C(=O)N[C@H]1CC[C@H](CCN2CC[C@H]3[C@@H]2CCN3c2ccc(N3CCC(=O)NC3=O)c(F)c2)CC1` [P-481], for which the “LVL THP1 HTRF YMIN” value is on record as 9.4% and the DC50 came to 38 nM.

These data come from US20240109881A1, “Heteroaryl Compounds as Ligand Directed Degraders of IRAK4” (Bristol-Myers Squibb Company, priority 2022, published 2024).
